Test results from publication PMC6045348 (ACS Omega, 2018).

Biological target: Ser–Thr PP-1 catalytic subunit (PP1c) (Oryctolagus cuniculus, UniProt P62139)
Experiment: DiFMUP fluorescence phosphatase assay, residual activity […] at […]
Type: biochemical

Ser–Thr PP-1 catalytic subunit (PP1c), sequence (P62139 2-330): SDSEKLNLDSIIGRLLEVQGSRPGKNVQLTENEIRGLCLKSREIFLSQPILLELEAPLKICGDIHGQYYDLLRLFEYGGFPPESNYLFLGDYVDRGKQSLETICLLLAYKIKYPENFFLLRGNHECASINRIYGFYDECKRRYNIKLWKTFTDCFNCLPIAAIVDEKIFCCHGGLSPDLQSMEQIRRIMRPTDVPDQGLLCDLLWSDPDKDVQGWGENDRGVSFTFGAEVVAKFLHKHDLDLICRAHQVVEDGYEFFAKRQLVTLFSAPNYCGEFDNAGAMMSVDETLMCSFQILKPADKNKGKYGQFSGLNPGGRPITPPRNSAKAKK

IC50: ~10 µM
SMILES: CN1C[C@@H](c2c[nH]c3cc(Br)ccc23)NC[C@@H]1c1c[nH]c2cc(Br)ccc12 [compound 3, dragmacidin A]
